Data: the supplement of paper PMC10307832

Columns and labels:
Assay in all cases: relative viability (nuclei count vs DMSO), 5 days (fraction); higher = more cells survive
BI-D1870 + Alpelisib = compound: CC(C)CCN1c2nc(Nc3cc(F)c(O)c(F)c3)ncc2N(C)C(=O)C1C [BI-D1870] + Cc1nc(NC(=O)N2CCC[C@H]2C(N)=O)sc1-c1ccnc(C(C)(C)C(F)(F)F)c1 [Alpelisib] (partner 2 µM)
Summary of the method: (§1)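 Nuclei were stained with Hoechst during a one-step fixation (final 0.05% Triton X-100, 1% formaldehyde, 1 ug/ml Hoechst) carried out 5 days after dosing, then counted on 4× images. The cells, lung cancer lines in 1536-well plates, had been dosed by pin tool the day after seeding with one drug alone or a fixed anchor-drug dose plus five library-drug doses (not always all listed) in √10 steps. Relative viability is the nuclei count in treated wells divided by that in vehicle wells, and each value is the median of duplicate plates.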

BI-D1870 + Olaparib = compound: CC(C)CCN1c2nc(Nc3cc(F)c(O)c(F)c3)ncc2N(C)C(=O)C1C [BI-D1870] + O=C(c1cc(Cc2n[nH]c(=O)c3ccccc23)ccc1F)N1CCN(C(=O)C2CC2)CC1 [Olaparib] (partner 8 µM)
Summary of the method: as §1

Zebularine + Dasatinib = compound: O=c1ncccn1[C@@H]1O[C@H](CO)[C@@H](O)[C@H]1O [Zebularine] + Cc1nc(Nc2ncc(C(=O)Nc3c(C)cccc3Cl)s2)cc(N2CCN(CCO)CC2)n1 [Dasatinib] (partner 0.075 µM)
Summary of the method: as §1

BI-D1870 + Pemetrexed = compound: CC(C)CCN1c2nc(Nc3cc(F)c(O)c(F)c3)ncc2N(C)C(=O)C1C [BI-D1870] + Nc1nc2[nH]cc(CCc3ccc(C(=O)N[C@@H](CCC(=O)O)C(=O)O)cc3)c2c(=O)[nH]1 [Pemetrexed] (partner 0.2 µM)
Summary of the method: as §1

Cell Line: UMC-11
- relative viability (BI-D1870 + Alpelisib; first compound 0.04 µM): 1.05
- relative viability (BI-D1870 + Alpelisib; first compound 0.1265 µM): 0.935
- relative viability (BI-D1870 + Alpelisib; first compound 0.4 µM): 1
- relative viability (BI-D1870 + Alpelisib; first compound 1.265 µM): 1.05
- relative viability (BI-D1870 + Alpelisib; first compound 4 µM): 1.02
- relative viability (BI-D1870 + Olaparib; first compound 0.04 µM): 0.36
- relative viability (BI-D1870 + Olaparib; first compound 0.1265 µM): 0.363
- relative viability (BI-D1870 + Olaparib; first compound 0.4 µM): 0.369
- relative viability (BI-D1870 + Olaparib; first compound 1.265 µM): 0.374
- relative viability (BI-D1870 + Olaparib; first compound 4 µM): 0.204
- relative viability (Zebularine + Dasatinib; first compound 1 µM): 0.514
- relative viability (Zebularine + Dasatinib; first compound 3.162 µM): 0.471
- relative viability (Zebularine + Dasatinib; first compound 10 µM): 0.205
- relative viability (Zebularine + Dasatinib; first compound 31.62 µM): 0.436
- relative viability (Zebularine + Dasatinib; first compound 100 µM): 0.324
- relative viability (BI-D1870 + Pemetrexed; first compound 0.04 µM): 0.812
- relative viability (BI-D1870 + Pemetrexed; first compound 0.1265 µM): 0.751
- relative viability (BI-D1870 + Pemetrexed; first compound 0.4 µM): 0.777
- relative viability (BI-D1870 + Pemetrexed; first compound 1.265 µM): 0.779
- relative viability (BI-D1870 + Pemetrexed; first compound 4 µM): 0.277
